Assay results from ChEMBL document CHEMBL1817567, “Design of benzimidazole- and benzoxazole-2-thione derivatives as inhibitors of bacterial hyaluronan lyase” (Eur J Med Chem, 2011).

Target: T1, Hyaluronidase (Bos taurus, UniProt Q8SQG8+Q5E985)
T1 sequence (Q8SQG8 whole entry): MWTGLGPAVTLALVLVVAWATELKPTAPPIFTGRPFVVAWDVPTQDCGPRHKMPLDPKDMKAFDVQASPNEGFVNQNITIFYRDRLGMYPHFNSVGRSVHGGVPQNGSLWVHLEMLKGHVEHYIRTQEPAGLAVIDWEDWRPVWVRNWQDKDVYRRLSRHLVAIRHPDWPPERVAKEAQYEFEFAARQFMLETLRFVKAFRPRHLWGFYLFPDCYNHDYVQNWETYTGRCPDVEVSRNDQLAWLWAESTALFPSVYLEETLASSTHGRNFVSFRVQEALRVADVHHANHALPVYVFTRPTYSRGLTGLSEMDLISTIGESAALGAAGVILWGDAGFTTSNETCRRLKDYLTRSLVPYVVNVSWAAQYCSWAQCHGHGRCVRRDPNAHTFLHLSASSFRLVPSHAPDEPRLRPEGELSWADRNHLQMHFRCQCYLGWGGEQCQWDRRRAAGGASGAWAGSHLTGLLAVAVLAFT
T1 sequence (Q5E985 whole entry): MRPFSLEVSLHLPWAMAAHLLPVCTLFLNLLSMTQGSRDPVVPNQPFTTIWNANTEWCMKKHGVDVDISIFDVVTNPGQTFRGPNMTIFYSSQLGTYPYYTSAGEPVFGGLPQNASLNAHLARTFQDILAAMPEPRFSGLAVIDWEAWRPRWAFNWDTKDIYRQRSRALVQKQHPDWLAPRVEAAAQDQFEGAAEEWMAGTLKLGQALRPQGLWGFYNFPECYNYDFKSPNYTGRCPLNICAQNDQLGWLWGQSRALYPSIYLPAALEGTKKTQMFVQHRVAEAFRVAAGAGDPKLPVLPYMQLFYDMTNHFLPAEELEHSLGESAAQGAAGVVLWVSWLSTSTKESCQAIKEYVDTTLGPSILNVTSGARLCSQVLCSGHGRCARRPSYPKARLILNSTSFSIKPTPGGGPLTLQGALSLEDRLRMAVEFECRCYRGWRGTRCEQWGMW
Experiment: Inhibition of bovine testes hyaluronidase after 30 mins at pH 5 by turbidimetric analysis
Type: protein assay

SMILES: Oc1ccc(-c2[nH]c3ccccc3c2-c2ccccc2)cc1
- IC50: 107 µM
